Tested on: male accessory sex glands and tissues in sexually immature castrated male rats
Assay: Oral Hershberger Assay: weights of male accessory sex glands and tissues after ten days of oral gavage
Format: in vivo, rat
Conditions: ten consecutive days
Description: Applicants performed a set of experiments to identify the potential for a compound to mimic endogenous sex hormones. An in vivo study was performed using a short-term screening assay to identify changes in weights of male accessory sex glands and tissues in sexually immature castrated male rats. The study preformed is known in the art as an “Oral Hershberger Assay”.
This study included forty-two sexually immature castrated male rats that were randomly assigned to seven different groups and assigned formulations of the test article, oxandrolone, positive control article, 17α-methyl testosterone, or the vehicle, aqueous 0.5% methylcellulose. These formulations were administered orally via gavage once daily for ten consecutive days at dosages of 0 (vehicle), 1, 3 and 10 mg/kg/day. The dosage volume was 0.5 mL/kg, adjusted daily for body weight changes and were given at approximately the same time each day.
Approximately 24 hours after the last dosage administration the rats were euthanized via carbon dioxide asphyxiation. The following tissues were excised trimmed and weighed: liver, paired adrenal glands, paired kidneys, ventral prostate, seminal vesicles together with the coagulating gland, levator ani and bulbocavemous muscles, glands penis and cowper's gland. These tissues were retained in neutral buffered 10% formalin to be used for any possible future evaluation.
The following table presents the percent changes from the control group value.

SMILES	Cowpers Gland, percent changes from the control group value (1 mg/kg/day orally via gavage) [%]	Glands Penis, percent changes from the control group value (1 mg/kg/day orally via gavage) [%]	Levator Ani and Bulbocavernous, percent changes from the control group value (1 mg/kg/day orally via gavage) [%]	Prostate (Fixed), percent changes from the control group value (1 mg/kg/day orally via gavage) [%]	Prostate, percent changes from the control group value (1 mg/kg/day orally via gavage) [%]	Seminal Vesicles with Fluid, percent changes from the control group value (1 mg/kg/day orally via gavage) [%]	Cowpers Gland, percent changes from the control group value (3 mg/kg/day orally via gavage) [%]	Glands Penis, percent changes from the control group value (3 mg/kg/day orally via gavage) [%]	Levator Ani and Bulbocavernous, percent changes from the control group value (3 mg/kg/day orally via gavage) [%]	Prostate (Fixed), percent changes from the control group value (3 mg/kg/day orally via gavage) [%]	Prostate, percent changes from the control group value (3 mg/kg/day orally via gavage) [%]	Seminal Vesicles with Fluid, percent changes from the control group value (3 mg/kg/day orally via gavage) [%]	Cowpers Gland, percent changes from the control group value (10 mg/kg/day orally via gavage) [%]	Glands Penis, percent changes from the control group value (10 mg/kg/day orally via gavage) [%]	Levator Ani and Bulbocavernous, percent changes from the control group value (10 mg/kg/day orally via gavage) [%]	Prostate (Fixed), percent changes from the control group value (10 mg/kg/day orally via gavage) [%]	Prostate, percent changes from the control group value (10 mg/kg/day orally via gavage) [%]	Seminal Vesicles with Fluid, percent changes from the control group value (10 mg/kg/day orally via gavage) [%]
C[C@]12COC(=O)C[C@@H]1CC[C@@H]1[C@@H]2CC[C@@]2(C)[C@H]1CC[C@]2(C)O [Oxandro, oxandrolone]	137.1	104.1	107.3	127.6	135.3	100.7	159.7	107.4	148.2	149.9	139.4	120.1	206.5	109.6	192.4	192.2	166.3	171.0
C[C@]12CCC(=O)C=C1CC[C@@H]1[C@@H]2CC[C@@]2(C)[C@H]1CC[C@]2(C)O [Meth-Test, 17α-methyl testosterone]	88.7	127.9	111.0	101.9	97.0	89.6	179.0	102.6	114.2	119.0	109.1	118.0	237.1	122.9	139.7	234.0	222.5	194.4

From US20030191096A1, “Method of hormonal therapy” (priority 2002, published 2003)
